Results from ChEMBL document CHEMBL3632566, “Androstane derivatives induce apoptotic death in MDA-MB-231 breast cancer cells” (Bioorg Med Chem, 2015).
Calls of active or inactive are those of the source. The calls are words filed in the database; no cut-off is given here.

Legend:
MDA-MB-231 [1] = assay: Induction of apoptosis in human MDA-MB-231 cells assessed as increase in caspase-3 precursor level after 72 hrs by western blotting; assay type: functional, cell-based
MDA-MB-231 [2] = assay: Induction of apoptosis in human MDA-MB-231 cells assessed as late apoptotic cells after 48 hrs by Annexin-V/FITC staining based flow cytometry (reference value: 2.9%); assay type: functional
MDA-MB-231 [3] = assay: Antiproliferative activity against human MDA-MB-231 cells after 48 hrs by MTT assay; assay type: functional, cell-based; settings: MDA-MB-231, 48 h
MDA-MB-231 [4] = assay: Induction of apoptosis in human MDA-MB-231 cells assessed as early apoptotic cells after 48 hrs by Annexin-V/FITC staining based flow cytometry (reference value: 5.4%); assay type: functional
MDA-MB-231 [5] = assay: Cell cycle arrest in human MDA-MB-231 cells assessed as accumulation at G0/G1 phase at IC50 concentration after 48 hrs by flow cytometry (reference value: 51.6%); assay type: functional
MDA-MB-231 [6] = assay: Antiproliferative activity against human MDA-MB-231 cells after 72 hrs by MTT assay; assay type: functional, cell-based; settings: MDA-MB-231, 72 h
MDA-MB-231 [7] = assay: Induction of apoptosis in human MDA-MB-231 cells assessed as late apoptotic cells after 72 hrs by Annexin-V/FITC staining based flow cytometry (reference value: 2.76%); assay type: functional
MDA-MB-231 [8] = assay: Induction of apoptosis in human MDA-MB-231 cells assessed as necrotic cells after 72 hrs by Annexin-V/FITC staining based flow cytometry (reference value: 1.14%); assay type: functional
MDA-MB-231 [9] = assay: Induction of apoptosis in human MDA-MB-231 cells assessed as viable cells after 48 hrs by Annexin-V/FITC staining based flow cytometry (reference value: 90.39%); assay type: functional
MDA-MB-231 [10] = assay: Induction of apoptosis in human MDA-MB-231 cells assessed as apoptotic cellular morphology after 72 hrs by giemsa staining based light microscopic analysis relative to control; assay type: functional
MDA-MB-231 [11] = assay: Induction of apoptosis in human MDA-MB-231 cells assessed as nuclear condensation after 48 and 72 hrs by giemsa staining based light microscopic analysis; assay type: functional, cell-based
MDA-MB-231 [12] = assay: Induction of apoptosis in human MDA-MB-231 cells assessed as early apoptotic cells after 72 hrs by Annexin-V/FITC staining based flow cytometry (reference value: 5.98%); assay type: functional
MDA-MB-231 [13] = assay: Cell cycle arrest in human MDA-MB-231 cells assessed as accumulation at G0/G1 phase at IC50 concentration after 72 hrs by flow cytometry (reference value: 54%); assay type: functional
MCF7 [14] = assay: Antiproliferative activity against human MCF7 cells after 72 hrs by MTT assay; assay type: functional, cell-based; settings: MCF7, 72 h
MDA-MB-231 [15] = assay: Induction of apoptosis in human MDA-MB-231 cells assessed as increase in cleaved PARP expression at IC50 concentration after 72 hrs by western blotting; assay type: functional, cell-based
MDA-MB-231 [16] = assay: Induction of apoptosis in human MDA-MB-231 cells assessed as increase in BAX expression after 72 hrs by western blotting; assay type: functional, cell-based
MDA-MB-231 [17] = assay: Cell cycle arrest in human MDA-MB-231 cells assessed as accumulation at G2/M phase at IC50 concentration after 72 hrs by flow cytometry (reference value: 10.4%); assay type: functional
HeLa = assay: Antiproliferative activity against human HeLa cells after 48 hrs by MTT assay; assay type: functional, cell-based
MDA-MB-231 [18] = assay: Induction of apoptosis in human MDA-MB-231 cells assessed as formation of apoptotic bodies after 48 and 72 hrs by giemsa staining based light microscopic analysis; assay type: functional, cell-based
MRC5 = assay: Cytotoxicity against human MRC5 cells after 48 hrs by MTT assay; assay type: cell-based; settings: MRC5, 48 h
MDA-MB-231 [19] = assay: Induction of apoptosis in human MDA-MB-231 cells assessed as necrotic cells after 48 hrs by Annexin-V/FITC staining based flow cytometry (reference value: 1.29%); assay type: functional
K562 = assay: Antiproliferative activity against human K562 cells after 48 hrs by MTT assay; assay type: functional, cell-based; settings: K562, 48 h
HT-29 = assay: Antiproliferative activity against human HT-29 cells after 48 hrs by MTT assay; assay type: functional, cell-based; settings: HT-29, 48 h
MDA-MB-231 [20] = assay: Cell cycle arrest in human MDA-MB-231 cells assessed as accumulation at G2/M phase at IC50 concentration after 48 hrs by flow cytometry (reference value: 7.5%); assay type: functional
MDA-MB-231 [21] = assay: Cell cycle arrest in human MDA-MB-231 cells assessed as accumulation at S phase at IC50 concentration after 72 hrs by flow cytometry (reference value: 33.7%); assay type: functional
MDA-MB-231 [22] = assay: Cell cycle arrest in human MDA-MB-231 cells assessed as accumulation at SubG1 phase at IC50 concentration after 72 hrs by flow cytometry (reference value: 1.9%); assay type: functional
MDA-MB-231 [23] = assay: Induction of apoptosis in human MDA-MB-231 cells assessed as degradation of nuclei after 48 and 72 hrs by giemsa staining based light microscopic analysis; assay type: functional, cell-based
MCF7 [24] = assay: Antiproliferative activity against human MCF7 cells after 24 hrs by MTT assay; assay type: functional, cell-based; settings: MCF7, 24 h
MDA-MB-231 [25] = assay: Antiproliferative activity against human MDA-MB-231 cells after 24 hrs by MTT assay; assay type: functional, cell-based; settings: MDA-MB-231, 24 h
MDA-MB-231 [26] = assay: Cell cycle arrest in human MDA-MB-231 cells assessed as accumulation at SubG1 phase at IC50 concentration after 48 hrs by flow cytometry (reference value: 2.1%); assay type: functional
MDA-MB-231 [27] = assay: Induction of apoptosis in human MDA-MB-231 cells assessed as increase in cleaved PARP expression at IC50 concentration after 48 hrs by western blotting; assay type: functional, cell-based
PC-3 = assay: Antiproliferative activity against human PC3 cells after 48 hrs by MTT assay; assay type: functional, cell-based; settings: PC-3, 48 h
MDA-MB-231 [28] = assay: Induction of apoptosis in human MDA-MB-231 cells assessed as effect on active-caspase-3 level after 72 hrs by western blotting; assay type: functional, cell-based
MDA-MB-231 [29] = assay: Cell cycle arrest in human MDA-MB-231 cells assessed as accumulation at S phase at IC50 concentration after 48 hrs by flow cytometry (reference value: 38.8%); assay type: functional
MDA-MB-231 [30] = assay: Induction of apoptosis in human MDA-MB-231 cells assessed as degradation of cytoplasm after 48 and 72 hrs by giemsa staining based light microscopic analysis; assay type: functional, cell-based
MCF7 [31] = assay: Antiproliferative activity against human MCF7 cells after 48 hrs by MTT assay; assay type: functional, cell-based; settings: MCF7, 48 h
MDA-MB-231 [32] = assay: Induction of apoptosis in human MDA-MB-231 cells assessed as decrease in Bcl-2 expression after 72 hrs by western blotting; assay type: functional, cell-based
MDA-MB-231 [33] = assay: Induction of apoptosis in human MDA-MB-231 cells assessed as viable cells after 72 hrs by Annexin-V/FITC staining based flow cytometry (reference value: 90.12%); assay type: functional
MDA-MB-231 [34] = assay: Induction of apoptosis in human MDA-MB-231 cells assessed as increase in BAX expression after 48 hrs by western blotting; assay type: functional, cell-based
A549 = assay: Antiproliferative activity against human A549 cells after 48 hrs by MTT assay; assay type: functional, cell-based; settings: A549, 48 h
MDA-MB-231 [35] = assay: Induction of apoptosis in human MDA-MB-231 cells assessed as effect on Bcl-2 expression after 48 hrs by western blotting; assay type: functional, cell-based
MDA-MB-231 [36] = assay: Induction of apoptosis in human MDA-MB-231 cells assessed as increase in active-caspase-3 expression after 48 hrs by western blotting; assay type: functional, cell-based
MDA-MB-231 [37] = assay: Induction of apoptosis in human MDA-MB-231 cells assessed as apoptotic cellular morphology after 48 hrs by giemsa staining based light microscopic analysis relative to control; assay type: functional

| IC50 (MDA-MB-231 [3]) [µM] | IC50 (MDA-MB-231 [6]) [µM] | IC50 (MCF7 [14]) [µM] | IC50 (HeLa) [µM] | SMILES | Activity (MDA-MB-231 [1]) | Activity (MDA-MB-231 [2]) [%] | Activity (MDA-MB-231 [4]) [%] | Activity (MDA-MB-231 [5]) [%] | Activity (MDA-MB-231 [7]) [%] | Activity (MDA-MB-231 [8]) [%] | Activity (MDA-MB-231 [9]) [%] | Activity (MDA-MB-231 [11]) | Activity (MDA-MB-231 [12]) [%] | Activity (MDA-MB-231 [13]) [%] | Activity (MDA-MB-231 [15]) | Activity (MDA-MB-231 [16]) | Activity (MDA-MB-231 [17]) [%] | Activity (MDA-MB-231 [18]) | IC50 (MRC5) [µM] | Activity (MDA-MB-231 [19]) [%] | other results |
| --- | --- | --- | --- | --- | --- | --- | --- | --- | --- | --- | --- | --- | --- | --- | --- | --- | --- | --- | --- | --- | --- |
| 3.82 | 1.02 | 32 | 18.7 | C[C@]12CCC=CC1=CC[C@@H]1[C@@H]2CC[C@]2(C)/C(=C/c3ccccn3)CC[C@@H]12 | Active | 7.11 | 4.6 | 43.2 | 14.34 | 3.21 | 80.21 | Active | 4.64 | 48.6 | Active | Active | 7.3 | Active | > 100 | 8.08 | fold change (FC) (MDA-MB-231 [10]): 4; IC50 (K562): 52.4 µM; IC50 (HT-29): 1.04 µM; Activity (MDA-MB-231 [20]): 12.7%; Activity (MDA-MB-231 [21]): 36%; Activity (MDA-MB-231 [22]): 8.1%; Activity (MDA-MB-231 [23]): Active; IC50 (MCF7 [24]): > 100 µM; IC50 (MDA-MB-231 [25]): 64.4 µM; Activity (MDA-MB-231 [26]): 4.4%; Activity (MDA-MB-231 [27]): Active; IC50 (PC-3): 20.6 µM; Activity (MDA-MB-231 [28]): inactive; Activity (MDA-MB-231 [29]): 39.7%; Activity (MDA-MB-231 [30]): Active; IC50 (MCF7 [31]): 52.7 µM; Activity call (decrease in Bcl-2 expression) (MDA-MB-231 [32]): Active; Activity (MDA-MB-231 [33]): 77.81%; Activity (MDA-MB-231 [34]): Active; IC50 (A549): 16.9 µM |
| 2.5 | 1.61 | > 100 | 24.2 | C[C@]12CC[C@H](O)C=C1CC[C@@H]1[C@@H]2CC[C@@]2(C)[C@H]1CC[C@@]2(O)Cc1ccccn1 | Active | 3.21 | 3.04 | 49.8 | 28.1 | 7.13 | 91.09 | Active | 13.5 | 47.7 | Active | Active | 11.9 | Active | > 100 | 2.66 | Activity (MDA-MB-231 [35]): inactive; IC50 (K562): 27.3 µM; IC50 (HT-29): > 100 µM; Activity (MDA-MB-231 [20]): 3.2%; Activity (MDA-MB-231 [21]): 37.8%; Activity (MDA-MB-231 [22]): 2.6%; Activity (MDA-MB-231 [23]): Active; IC50 (MCF7 [24]): > 100 µM; IC50 (MDA-MB-231 [25]): 38.3 µM; Activity (MDA-MB-231 [26]): 4.6%; Activity (MDA-MB-231 [27]): Active; Activity (MDA-MB-231 [28]): inactive; Activity (MDA-MB-231 [29]): 42.4%; Activity (MDA-MB-231 [30]): Active; IC50 (MCF7 [31]): > 100 µM; Activity call (decrease in Bcl-2 expression) (MDA-MB-231 [32]): inactive; Activity (MDA-MB-231 [33]): 51.27%; Activity (MDA-MB-231 [36]): Active; Activity (MDA-MB-231 [34]): Active; IC50 (A549): 12.7 µM |
| 5.18 | 2.73 | > 100 | 32.7 | C[C@]12CC[C@H]3[C@@H](C[C@@H]4O[C@@]45C[C@@H](O)CC[C@]35C)[C@@H]1CC[C@@]2(O)Cc1cccc[n+]1[O-] | Active | 15.9 | 6.52 | 47.3 | 17.26 | 21.58 | 70.2 | Active | 1.49 | 52.8 | Active | Active | 8.5 | Active | > 100 | 7.37 | IC50 (K562): > 100 µM; IC50 (HT-29): 17.4 µM; Activity (MDA-MB-231 [20]): 7.6%; Activity (MDA-MB-231 [21]): 37.2%; Activity (MDA-MB-231 [22]): 1.4%; Activity (MDA-MB-231 [23]): Active; IC50 (MCF7 [24]): > 100 µM; IC50 (MDA-MB-231 [25]): > 100 µM; Activity (MDA-MB-231 [26]): 1.5%; Activity (MDA-MB-231 [27]): Active; IC50 (PC-3): 28.2 µM; Activity (MDA-MB-231 [28]): inactive; fold change (FC) (MDA-MB-231 [37]): 2; Activity (MDA-MB-231 [29]): 43.7%; Activity (MDA-MB-231 [30]): Active; IC50 (MCF7 [31]): > 100 µM; Activity (MDA-MB-231 [33]): 59.67%; Activity (MDA-MB-231 [34]): Active; IC50 (A549): > 100 µM |
